Laboratory results from patent US20060009478A1, “Methods for the treatment of back pain” (priority 2003, published 2006).

Experiments:
[1] = test system: patients with moderate to severe chronic pain due to osteoarthritis of the hip or knee; experiment: Pain control, 3-week osteoarthritis study; type: in vivo, human; conditions: ITT (N = 102 per active group), LOCF
Experimental: Pain Control was also assessed weekly at clinic visits. The patient was prompted with the question, “During the past week, how would you describe your pain control during the course of each day?” Responses were selected from: Pain was controlled for (1) a few hours or less each day; (2) several hours each day; (3) most of each day; and (4) throughout each day.
The global assessment, quality of analgesia, and pain control, recorded at the end of each week, were summarized in terms of category proportions.
For secondary analysis of data, pain intensity changes, SF-12, and WOMAC were analyzed with the ANOVA methods as described above. Within treatment arms, weeks were compared in pairwise fashion using paired-sample methods. The global assessments, quality of analgesia ratings, and pain control was analyzed at each week, globally and in pairwise fashion, using the Cocharan-Mantel-Haenszel row mean scores (CMH-RMS) test, using equally spaced scores.

[2] = test system: patients with moderate to severe chronic low back pain; experiment: Short Opiate Withdrawal Scale (SOWS), low back pain study; conditions: for SOWS change from baseline, MAX / SOWS change from baseline, MEAN(SD) / SOWS change from baseline, MEDIAN / SOWS change from baseline, MIN / SOWS score, MAX / SOWS score, MEAN(SD) / SOWS score, MEDIAN / SOWS score, MIN / SOWS change from baseline, MAXIMUM / SOWS change from baseline, MINIMUM / SOWS score, MAXIMUM / SOWS score, MINIMUM: ITT
[3] = all patients, change from baseline to day 1
[4] = all patients, change from baseline to day 2
[5] = all patients, change from baseline to day 3
[6] = all patients, change from baseline to day 4
[7] = all patients, last dose date (baseline)
[8] = all patients, opioid withdrawal monitoring day 1
[9] = all patients, opioid withdrawal monitoring day 2
[10] = all patients, opioid withdrawal monitoring day 3
[11] = all patients, opioid withdrawal monitoring day 4
[12] = patients with <4 weeks of dosing, change from baseline to day 1
[13] = patients with <4 weeks of dosing, change from baseline to day 2
[14] = patients with <4 weeks of dosing, change from baseline to day 3
[15] = patients with <4 weeks of dosing, change from baseline to day 4
[16] = patients with <4 weeks of dosing, last dose date (baseline)
[17] = patients with <4 weeks of dosing, opioid withdrawal monitoring day 1
[18] = patients with <4 weeks of dosing, opioid withdrawal monitoring day 2
[19] = patients with <4 weeks of dosing, opioid withdrawal monitoring day 3
[20] = patients with <4 weeks of dosing, opioid withdrawal monitoring day 4
[21] = patients with ≧4 weeks of dosing, change from baseline to day 1
[22] = patients with ≧4 weeks of dosing, change from baseline to day 2
[23] = patients with ≧4 weeks of dosing, change from baseline to day 3
[24] = patients with ≧4 weeks of dosing, change from baseline to day 4
[25] = patients with ≧4 weeks of dosing, last dose date (baseline)
[26] = patients with ≧4 weeks of dosing, opioid withdrawal monitoring day 1
[27] = patients with ≧4 weeks of dosing, opioid withdrawal monitoring day 2
[28] = patients with ≧4 weeks of dosing, opioid withdrawal monitoring day 3
[29] = patients with ≧4 weeks of dosing, opioid withdrawal monitoring day 4

COc1ccc2c3c1O[C@H]1C(=O)CC[C@@]4(O)[C@@H](C2)N(C)CC[C@]314 [OXY QID, oxycodone]
Pain control Week 1: PAIN CONTROLLED A FEW HRS/LESS EACH DAY (1), number (%) of patients [1]: 42 (41.2%) | Pain control Week 1: PAIN CONTROLLED MOST OF EACH DAY (3), number (%) of patients [1]: 17 (16.7%) | Pain control Week 1: PAIN CONTROLLED SEVERAL HRS EACH DAY (2), number (%) of patients [1]: 29 (28.4%) | Pain control Week 1: PAIN CONTROLLED THROUGHOUT EACH DAY (4), number (%) of patients [1]: 10 (9.8%) | Pain control Week 2: PAIN CONTROLLED A FEW HRS/LESS EACH DAY (1), number (%) of patients [1]: 36 (35.3%) | Pain control Week 2: PAIN CONTROLLED MOST OF EACH DAY (3), number (%) of patients [1]: 26 (25.5%) | Pain control Week 2: PAIN CONTROLLED SEVERAL HRS EACH DAY (2), number (%) of patients [1]: 26 (25.5%) | Pain control Week 2: PAIN CONTROLLED THROUGHOUT EACH DAY (4), number (%) of patients [1]: 10 (9.8%) | Pain control Week 3: PAIN CONTROLLED A FEW HRS/LESS EACH DAY (1), number (%) of patients [1]: 35 (34.3%) | Pain control Week 3: PAIN CONTROLLED MOST OF EACH DAY (3), number (%) of patients [1]: 27 (26.5%) | Pain control Week 3: PAIN CONTROLLED THROUGHOUT EACH DAY (4), number (%) of patients [1]: 8 (7.8%) | SOWS change from baseline, MAX [2, 3]: 1.9 | SOWS change from baseline, MEAN(SD) [2, 3]: 0.3 (0.47) | SOWS change from baseline, MEDIAN [2, 3]: 0.2 | SOWS change from baseline, MIN [2, 3]: −0.7 | SOWS change from baseline, MAX [2, 4]: 2.4 | SOWS change from baseline, MEAN(SD) [2, 4]: 0.3 (0.53) | SOWS change from baseline, MEDIAN [2, 4]: 0.2 | SOWS change from baseline, MIN [2, 4]: −1.1 | SOWS change from baseline, MAX [2, 5]: 1.7 | SOWS change from baseline, MEAN(SD) [2, 5]: 0.2 (0.48) | SOWS change from baseline, MEDIAN [2, 5]: 0.2 | SOWS change from baseline, MIN [2, 5]: −1.1 | SOWS change from baseline, MAX [2, 6]: 2.7 | SOWS change from baseline, MEAN(SD) [2, 6]: 0.2 (0.54) | SOWS change from baseline, MEDIAN [2, 6]: 0.1 | SOWS change from baseline, MIN [2, 6]: −1.1 | SOWS score, MAX [2, 7]: 1.5 | SOWS score, MEAN(SD) [2, 7]: 0.3 (0.36) | SOWS score, MEDIAN [2, 7]: 0.2 | SOWS score, MIN [2, 7]: 0.0 | SOWS score, MAX [2, 8]: 2.5 | SOWS score, MEAN(SD) [2, 8]: 0.5 (0.52) | SOWS score, MEDIAN [2, 8]: 0.4 | SOWS score, MIN [2, 8]: 0.0 | SOWS score, MAX [2, 9]: 2.5 | SOWS score, MEAN(SD) [2, 9]: 0.5 (0.54) | SOWS score, MEDIAN [2, 9]: 0.4 | SOWS score, MIN [2, 9]: 0.0 | SOWS score, MAX [2, 10]: 2.2 | SOWS score, MEAN(SD) [2, 10]: 0.5 (0.53) | SOWS score, MEDIAN [2, 10]: 0.4 | SOWS score, MIN [2, 10]: 0.0 | SOWS score, MAX [2, 11]: 2.7 | SOWS score, MEAN(SD) [2, 11]: 0.4 (0.54) | SOWS score, MEDIAN [2, 11]: 0.3 | SOWS score, MIN [2, 11]: 0.0 | SOWS change from baseline, MAX [2, 12]: 0.2 | SOWS change from baseline, MEAN(SD) [2, 12]: 0.0 (0.16) | SOWS change from baseline, MEDIAN [2, 12]: 0.0 | SOWS change from baseline, MIN [2, 12]: −0.2 | SOWS change from baseline, MAX [2, 13]: 1.3 | SOWS change from baseline, MEAN(SD) [2, 13]: 0.2 (0.66) | SOWS change from baseline, MEDIAN [2, 13]: 0.1 | SOWS change from baseline, MIN [2, 13]: −0.5 | SOWS change from baseline, MAX [2, 14]: 1.3 | SOWS change from baseline, MEAN(SD) [2, 14]: 0.2 (0.67) | SOWS change from baseline, MEDIAN [2, 14]: 0.0 | SOWS change from baseline, MIN [2, 14]: −0.5 | SOWS change from baseline, MAX [2, 15]: 0.8 | SOWS change from baseline, MEAN(SD) [2, 15]: 0.2 (0.41) | SOWS change from baseline, MEDIAN [2, 15]: 0.1 | SOWS change from baseline, MIN [2, 15]: −0.1 | SOWS score, MAX [2, 16]: 0.7 | SOWS score, MEAN(SD) [2, 16]: 0.3 (0.29) | SOWS score, MEDIAN [2, 16]: 0.2 | SOWS score, MIN [2, 16]: 0.0 | SOWS score, MAX [2, 17]: 0.9 | SOWS score, MEAN(SD) [2, 17]: 0.2 (0.27) | SOWS score, MEDIAN [2, 17]: 0.1 | SOWS score, MIN [2, 17]: 0.0 | SOWS score, MAX [2, 18]: 1.3 | SOWS score, MEAN(SD) [2, 18]: 0.2 (0.38) | SOWS score, MEDIAN [2, 18]: 0.0 | SOWS score, MIN [2, 18]: 0.0 | SOWS score, MAX [2, 19]: 1.3 | SOWS score, MEAN(SD) [2, 19]: 0.2 (0.39) | SOWS score, MEDIAN [2, 19]: 0.0 | SOWS score, MIN [2, 19]: 0.0 | SOWS score, MAX [2, 20]: 0.8 | SOWS score, MEAN(SD) [2, 20]: 0.1 (0.26) | SOWS score, MEDIAN [2, 20]: 0.0 | SOWS score, MIN [2, 20]: 0.0 | SOWS change from baseline, MAXIMUM [2, 21]: 1.9 | SOWS change from baseline, MEAN(SD) [2, 21]: 0.3 (0.48) | SOWS change from baseline, MEDIAN [2, 21]: 0.2 | SOWS change from baseline, MINIMUM [2, 21]: −0.7 | SOWS change from baseline, MAXIMUM [2, 22]: 2.4 | SOWS change from baseline, MEAN(SD) [2, 22]: 0.3 (0.52) | SOWS change from baseline, MEDIAN [2, 22]: 0.2 | SOWS change from baseline, MINIMUM [2, 22]: −1.1 | SOWS change from baseline, MAXIMUM [2, 23]: 1.7 | SOWS change from baseline, MEAN(SD) [2, 23]: 0.3 (0.48) | SOWS change from baseline, MEDIAN [2, 23]: 0.2 | SOWS change from baseline, MINIMUM [2, 23]: −1.1 | SOWS change from baseline, MAXIMUM [2, 24]: 2.7 | SOWS change from baseline, MEAN(SD) [2, 24]: 0.2 (0.55) | SOWS change from baseline, MEDIAN [2, 24]: 0.1 | SOWS change from baseline, MINIMUM [2, 24]: −1.1 | SOWS score, MAXIMUM [2, 25]: 1.5 | SOWS score, MEAN(SD) [2, 25]: 0.3 (0.37) | SOWS score, MEDIAN [2, 25]: 0.2 | SOWS score, MINIMUM [2, 25]: 0.0 | SOWS score, MAXIMUM [2, 26]: 2.5 | SOWS score, MEAN(SD) [2, 26]: 0.5 (0.53) | SOWS score, MEDIAN [2, 26]: 0.4 | SOWS score, MINIMUM [2, 26]: 0.0 | SOWS score, MAXIMUM [2, 27]: 2.5 | SOWS score, MEAN(SD) [2, 27]: 0.6 (0.54) | SOWS score, MEDIAN [2, 27]: 0.4 | SOWS score, MINIMUM [2, 27]: 0.0 | SOWS score, MAXIMUM [2, 28]: 2.2 | SOWS score, MEAN(SD) [2, 28]: 0.6 (0.53) | SOWS score, MEDIAN [2, 28]: 0.4 | SOWS score, MINIMUM [2, 28]: 0.0 | SOWS score, MAXIMUM [2, 29]: 2.7 | SOWS score, MEAN(SD) [2, 29]: 0.5 (0.55) | SOWS score, MEDIAN [2, 29]: 0.3 | SOWS score, MINIMUM [2, 29]: 0.0 | Mean SOWS score in the first 24 hours following drug discontinuation ([2]; patients with ≧4 weeks of dosing, p<0.01): 2.6
